Where two headings read alike, the source gives them in different places.
What was measured:
[1] = test system: Beet Armyworm (Spodoptera exigua) ("BAW"), second instar larvae; test: Bioassay on beet armyworm (BAW), 128-well diet tray assay; format: in vivo; conditions: for pest or weed control at 50 µg/cm2: Spodoptera exigua
Method in brief: (§1)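 Second-instar larvae on diet in 128-well trays, covered and held at 25° C, 14:10 light-dark, for five to seven days. Percent mortality scored per well and averaged over eight wells; activity reported as a rating category.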

[2] = test system: Cabbage Looper (Trichoplusia ni) ("CL"), second instar larvae; test: Bioassay on cabbage looper (CL), 128-well diet tray assay; format: in vivo
Method in brief: as §1

[3] = Trichoplusia ni, read-out: CL rating
[4] = read-out: BAW (Biological Results, rating)
[5] = Trichoplusia ni, read-out: CL (Biological Results, rating)

SMILES | pest or weed control at 50 µg/cm2 ([1]; read-out: BAW rating) [%] | pest or weed control at 50 µg/cm2 [2, 3] [%] | pest or weed control at 50 µg/cm2 [1, 4] [%] | pest or weed control at 50 µg/cm2 [2, 5] [%] | also measured
CCCOc1ccc(C)cc1N1C(=O)CS/C1=N\C(=O)Nc1ccc(-c2cn(-c3ccc(S(F)(F)(F)(F)F)cc3)cn2)cc1F [Compound J595, (Z)-1-(2-Fluoro-4-(1-(4-(pentafluoro-λ^6-sulfaneyl)phenyl)-1H-imidazol-4-yl)phenyl)-3-(3-(5-methyl-2-propoxyphenyl)-4-oxothiazolidin-2-ylidene)urea] | 50 to 100 | 50 to 100 | – | – | –
COCOc1cc(-c2ncn(-c3ccc(OC(F)(F)F)cc3)n2)ccc1NC(=O)/N=C1\SCC(=O)N1c1cc(C)ccc1C(C)C [Compound J170, (Z)-1-(3-(2-Isopropyl-5-methylphenyl)-4-oxothiazolidin-2-ylidene)-3-(2-(methoxymethoxy)-4-(1-(4-(trifluoromethoxy)phenyl)-1H-1,2,4-triazol-3-yl)phenyl)urea] | – | – | 50 to 100 | 50 to 100 | –
CC(C)c1cc(F)c(N(C)C)cc1N1C(=O)CS/C1=N\C(=O)Nc1ccc(-c2ncn(-c3ccc(C(F)F)cn3)n2)cc1F [Compound J351] | – | – | – | – | BAW (Biological Results, rating) ([1]; Beet Armyworm (Spodoptera exigua), C = Not Tested): A (50-100); CL (Biological Results, rating) ([2]; Cabbage Looper (Trichoplusia ni), C = Not Tested): A (50-100)
Cc1ccc(COCC(F)F)c(N2C(=O)CS/C2=N\C(=O)Nc2ccc(-n3cnc(-c4ccc(OC(F)(F)F)cc4)c3)cc2Cl)c1 [Compound J787, (Z)-1-(2-Chloro-4-(4-(4-(trifluoromethoxy)phenyl)-1H-imidazol-1-yl)phenyl)-3-(3-(2-((2,2-difluoroethoxy)methyl)-5-methylphenyl)-4-oxothiazolidin-2-ylidene)urea] | – | – | – | – | BAW rating (% control or mortality class) ([1]; Table ABC, species BAW, 128-well diet tray assay, second instar larvae): A (50-100); mortality at 50 µg/cm2 ([2]; Trichoplusia ni, Table ABC, species CL, 128-well diet tray assay, second instar larvae, read-out: CL rating (% control or mortality class)): 50 to 100%
Cc1ccc(COCC(F)(F)F)c(N2C(=O)CS/C2=N\C(=O)Nc2ccc(-c3ccn(-c4ccc(C(F)(F)F)cn4)n3)cc2F)c1 [Compound J308, (Z)-1-(2-Fluoro-4-(1-(5-(trifluoromethyl)pyridin-2-yl)-1H-pyrazol-3-yl)phenyl)-3-(3-(5-methyl-2-((2,2,2-trifluoroethoxy)methyl)phenyl)-4-oxothiazolidin-2-ylidene)urea] | – | – | 50 to 100 | 50 to 100 | –
Cc1ccc(OCCC(F)(F)F)c(N2C(=O)CS/C2=N\C(=O)Nc2ccc(-n3cnc(-c4ccc(OC(F)(F)F)cc4)n3)cc2F)c1 [Compound J693, (Z)-1-(2-Fluoro-4-(3-(4-(trifluoromethoxy)phenyl)-1H-1,2,4-triazol-1-yl)phenyl)-3-(3-(5-methyl-2-(3,3,3-trifluoropropoxy)phenyl)-4-oxothiazolidin-2-ylidene)urea] | 50 to 100 | 50 to 100 | – | – | –
COc1ccc(-n2cnc(-c3ccc(NC(=O)/N=C4\SCC(=O)N4c4cc(C)ccc4COCC(F)(F)F)c(F)c3)n2)cc1 [Compound J754, (Z)-1-(2-Fluoro-4-(1-(4-methoxyphenyl)-1H-1,2,4-triazol-3-yl)phenyl)-3-(3-(5-methyl-2-((2,2,2-trifluoroethoxy)methyl)phenyl)-4-oxothiazolidin-2-ylidene)urea] | 50 to 100 | 50 to 100 | – | – | –
CCOC(C)c1ccc(C)cc1N1C(=O)CS/C1=N\C(=O)Nc1ccc(-c2cn(-c3ccc(S(F)(F)(F)(F)F)cc3)cn2)cc1F (centres unmarked) [Compound J594, (Z)-1-(3-(2-(1-Ethoxyethyl)-5-methylphenyl)-4-oxothiazolidin-2-ylidene)-3-(2-fluoro-4-(1-(4-(pentafluoro-λ^6-sulfaneyl)phenyl)-1H-imidazol-4-yl)phenyl)urea] | 50 to 100 | 50 to 100 | – | – | –
CCCOc1ccc(C)cc1N1C(=O)CS/C1=N\C(=O)Nc1ccc(-c2ncn(-c3ccc(S(F)(F)(F)(F)F)cc3)n2)cc1F [Compound J541] | 50 to 100 | 50 to 100 | – | – | –
Cc1ccc(OCCC(F)(F)F)c(N2C(=O)CS/C2=N\C(=O)Nc2ccc(-c3ncn(-c4ccc([S+]([O-])C(F)(F)F)cc4)n3)cc2F)c1 (centres unmarked) [Compound J382, (Z)-1-(2-Fluoro-4-(1-(4-((trifluoromethyl)sulfinyl)phenyl)-1H-1,2,4-triazol-3-yl)phenyl)-3-(3-(5-methyl-2-(3,3,3-trifluoropropoxy)phenyl)-4-oxothiazolidin-2-ylidene)urea] | 50 to 100 | 50 to 100 | – | – | –
CC(C)c1cc(-c2ncn(-c3ccc(OC(F)(F)F)cc3)n2)ccc1NC(=O)/N=C1\SCC(=O)N1c1cc(N(C)C)ccc1C(C)C [Compound J101, (Z)-1-(3-(5-(Dimethylamino)-2-isopropylphenyl)-4-oxothiazolidin-2-ylidene)-3-(2-isopropyl-4-(1-(4-(trifluoromethoxy)phenyl)-1H-1,2,4-triazol-3-yl)phenyl)urea] | – | – | 50 to 100 | 50 to 100 | –
COc1ccc(COCC(F)(F)F)c(N2C(=O)CS/C2=N\C(=O)Nc2ccc(-n3cnc(-c4ccc(OC(F)(F)F)cc4)n3)cc2F)c1 [Compound J691, (Z)-1-(2-Fluoro-4-(3-(4-(trifluoromethoxy)phenyl)-1H-1,2,4-triazol-1-yl)phenyl)-3-(3-(5-methoxy-2-((2,2,2-trifluoroethoxy)methyl)phenyl)-4-oxothiazolidin-2-ylidene)urea] | 50 to 100 | 50 to 100 | – | – | –
Cc1ccc(OCCC(F)(F)F)c(N2C(=O)CS/C2=N\C(=O)Nc2ccc(-c3cn(-c4ccc(C(F)(F)F)cn4)cn3)cc2C)c1 [Compound J512, (Z)-1-(3-(5-Methyl-2-(3,3,3-trifluoropropoxy)phenyl)-4-oxothiazolidin-2-ylidene)-3-(2-methyl-4-(1-(5-(trifluoromethyl)pyridin-2-yl)-1H-imidazol-4-yl)phenyl)urea] | 50 to 100 | 50 to 100 | – | – | –
COc1ccc(C(C)C)c(N2C(=O)CS/C2=N\C(=O)Nc2c(C)cc(-c3ncn(-c4ccc(OC(F)(F)F)cc4)n3)cc2C)c1 [Compound J98, (Z)-1-(2,6-Dimethyl-4-(1-(4-(trifluoromethoxy)phenyl)-1H-1,2,4-triazol-3-yl)phenyl)-3-(3-(2-isopropyl-5-methoxyphenyl)-4-oxothiazolidin-2-ylidene)urea] | – | – | 50 to 100 | 50 to 100 | –
Cc1ccc(COCC(F)(F)F)c(N2C(=O)CS/C2=N\C(=O)Nc2ccc(-c3ncn(-c4ccc([S+]([O-])C(F)(F)F)cc4)n3)cc2F)c1 (centres unmarked) [Compound J380, (Z)-1-(2-Fluoro-4-(1-(4-((trifluoromethyl)sulfinyl)phenyl)-1H-1,2,4-triazol-3-yl)phenyl)-3-(3-(5-methyl-2-((2,2,2-trifluoroethoxy)methyl)phenyl)-4-oxothiazolidin-2-ylidene)urea] | 50 to 100 | 50 to 100 | – | – | –
Cc1ccc(COCC(F)(F)F)c(N2C(=O)CS/C2=N\C(=O)Nc2ccc(-c3ncn(-c4ccccc4)n3)cc2F)c1 [Compound J769, (Z)-1-(2-Fluoro-4-(1-phenyl-1H-1,2,4-triazol-3-yl)phenyl)-3-(3-(5-methyl-2-((2,2,2-trifluoroethoxy)methyl)phenyl)-4-oxothiazolidin-2-ylidene)urea] | 50 to 100 | 50 to 100 | – | – | –
COC(C)c1ccc(C)cc1N1C(=O)CS/C1=N\C(=O)Nc1ccc(-c2ncn(-c3ccc(OC(F)(F)F)cn3)n2)cc1Cl (centres unmarked) [Compound J250, (Z)-1-(2-Chloro-4-(1-(5-(trifluoromethoxy)pyridin-2-yl)-1H-1,2,4-triazol-3-yl)phenyl)-3-(3-(2-(1-methoxyethyl)-5-methylphenyl)-4-oxothiazolidin-2-ylidene)urea] | – | – | 50 to 100 | 50 to 100 | –
COc1ccc(CC(F)(F)F)c(N2C(=O)CS/C2=N\C(=O)NCC(F)c2ccc(-c3ncn(-c4ccc(OC(F)(F)F)cc4)n3)c(OC)c2)c1 (centres unmarked) [Compound H17] | – | – | 50 to 100 | 50 to 100 | –
Cc1ccc(OCCC(F)(F)F)c(N2C(=O)CS/C2=N\C(=O)Nc2ccc(-c3ncn(-c4ccc(C(F)(F)F)cn4)n3)cc2F)c1 [Compound J307, (Z)-1-(2-Fluoro-4-(1-(5-(trifluoromethyl)pyridin-2-yl)-1H-1,2,4-triazol-3-yl)phenyl)-3-(3-(5-methyl-2-(3,3,3-trifluoropropoxy)phenyl)-4-oxothiazolidin-2-ylidene)urea] | – | – | 50 to 100 | 50 to 100 | –
CCOCc1ccc(C)cc1N1C(=O)CS/C1=N\C(=O)Nc1ccc(-c2ncn(-c3ccc(OC(F)(F)F)cc3)n2)cc1C [Compound J206, (Z)-1-(3-(2-(Ethoxymethyl)-5-methylphenyl)-4-oxothiazolidin-2-ylidene)-3-(2-methyl-4-(1-(4-(trifluoromethoxy)phenyl)-1H-1,2,4-triazol-3-yl)phenyl)urea] | – | – | 50 to 100 | 50 to 100 | –
COc1ccc(COCC(F)(F)F)c(N2C(=O)CS/C2=N\C(=O)Nc2ccc(-c3ncn(-c4ccc(S(F)(F)(F)(F)F)cc4)n3)cc2F)c1 [Compound J565] | – | – | – | – | BAW rating ([1]; Table ABC, species BAW, C = not tested, D = no activity noticed): A (50-100); CL rating ([2]; Table ABC, species CL, C = not tested, D = no activity noticed): A (50-100)
Cc1ccc(COCc2ccccc2F)c(N2C(=O)CS/C2=N\C(=O)Nc2ccc(-c3ncn(-c4ccc(OC(F)(F)F)cc4)n3)cc2F)c1 [Compound J635, (Z)-1-(2-Fluoro-4-(1-(4-(trifluoromethoxy)phenyl)-1H-1,2,4-triazol-3-yl)phenyl)-3-(3-(2-(((2-fluorobenzyl)oxy)methyl)-5-methylphenyl)-4-oxothiazolidin-2-ylidene)urea] | 50 to 100 | 50 to 100 | – | – | –
